Test results: publication PMC3853718 (Journal of Translational Medicine, 2013)

Test system: subjects with advanced malignancies
Experiment: Phase 1 dose escalation: toxicity, safety and tolerability (DLT, MAD, RP2D, AEs)
[1] = Dose level 0.33 mg/m^2, 1 subject
[2] = Dose level 0.66 mg/m^2, 1 subject
[3] = Dose level 1.32 mg/m^2, 1 subject
[4] = Dose level 2.59 mg/m^2, 4 subjects
[5] = Dose level 3.63 mg/m^2, 8 subjects
[6] = Dose level 5.08 mg/m^2, 3 subjects
[7] = Dose level 7.11 mg/m^2, 7 subjects
[8] = Dose level 10 mg/m^2, 3 subjects
[9] = Dose level 12 mg/m^2, 11 subjects

In the case of `CCc1cnn2c(NCc3ccc[n+]([O-])c3)cc(N3CCCC[C@H]3CCO)nc12` [dinaciclib], the “TEAE: Abdominal distension” value (14 mg/m^2 (n = 5), Grade 3–4) is reported as 0 n (%), the “TEAE: Abdominal pain” value (14 mg/m^2 (n = 5), Grade 3–4) is reported as 0 n (%) and the “TEAE: Anemia” value (14 mg/m^2 (n = 5), Grade 3–4) is reported as 1 (20) n (%). For the same compound, the “TEAE: Asthenia” value (14 mg/m^2 (n = 5), Grade 3–4) was 1 (20) n (%), the “TEAE: Back pain” value (14 mg/m^2 (n = 5), Grade 3–4) was 0 n (%) and the “TEAE: Constipation” value (14 mg/m^2 (n = 5), Grade 3–4) was 0 n (%). For the same compound, the “TEAE: Cough” value (14 mg/m^2 (n = 5), Grade 3–4) was 0 n (%), the “TEAE: Decreased appetite” value (14 mg/m^2 (n = 5), Grade 3–4) was 0 n (%) and the “TEAE: Dehydration” value (14 mg/m^2 (n = 5), Grade 3–4) was 0 n (%). For the same compound, the “TEAE: Diarrhea” value (14 mg/m^2 (n = 5), Grade 3–4) was 0 n (%), the “TEAE: Dizziness” value (14 mg/m^2 (n = 5), Grade 3–4) was 1 (20) n (%) and the “TEAE: Dyspnea” value (14 mg/m^2 (n = 5), Grade 3–4) was 1 (20) n (%). The “TEAE: Fatigue” value (14 mg/m^2 (n = 5), Grade 3–4) was 0 n (%), the “TEAE: Flatulence” value (14 mg/m^2 (n = 5), Grade 3–4) was 0 n (%) and the “TEAE: Hyperbilirubinemia” value (14 mg/m^2 (n = 5), Grade 3–4) was 1 (20) n (%). The “TEAE: Hyperglycemia” value (14 mg/m^2 (n = 5), Grade 3–4) was 1 (20) n (%), the “TEAE: Hyperuricemia” value (14 mg/m^2 (n = 5), Grade 3–4) was 1 (20) n (%) and the “TEAE: Hypokalemia” value (14 mg/m^2 (n = 5), Grade 3–4) was 0 n (%). For the same compound, the “TEAE: Hypophosphatemia” value (14 mg/m^2 (n = 5), Grade 3–4) was 0 n (%), the “TEAE: Increased ALP” value (14 mg/m^2 (n = 5), Grade 3–4) was 1 (20) n (%) and the “TEAE: Increased ALT” value (14 mg/m^2 (n = 5), Grade 3–4) was 0 n (%). The “TEAE: Increased AST” value (14 mg/m^2 (n = 5), Grade 3–4) was 0 n (%), the “TEAE: Nausea” value (14 mg/m^2 (n = 5), Grade 3–4) was 1 (20) n (%) and the “TEAE: Neutropenia” value (14 mg/m^2 (n = 5), Grade 3–4) was 2 (40) n (%). The “TEAE: Peripheral edema” value (14 mg/m^2 (n = 5), Grade 3–4) was 0 n (%), the “TEAE: Pyrexia” value (14 mg/m^2 (n = 5), Grade 3–4) was 0 n (%) and the “TEAE: Subjects with any AE” value (14 mg/m^2 (n = 5), Grade 3–4) was 5 (100) n (%). For the same compound, the “TEAE: Urinary tract infection” value (14 mg/m^2 (n = 5), Grade 3–4) was 0 n (%), the “TEAE: Vomiting” value (14 mg/m^2 (n = 5), Grade 3–4) was 1 (20) n (%) and the “TEAE: Weight decreased” value (14 mg/m^2 (n = 5), Grade 3–4) was 0 n (%). For the same compound, the “maximum administered dose (MAD)” value (2-hour IV infusion on days 1, 8, 15 of a 28-day cycle) was 14 mg/m^2, the “TEAE: Abdominal distension” value (All doses (N = 48), All grades) was 5 (10) n (%) and the “TEAE: Abdominal pain” value (All doses (N = 48), All grades) was 8 (17) n (%). The “TEAE: Anemia” value (All doses (N = 48), All grades) was 19 (40) n (%), the “TEAE: Asthenia” value (All doses (N = 48), All grades) was 11 (23) n (%) and the “TEAE: Back pain” value (All doses (N = 48), All grades) was 11 (23) n (%). For the same compound, the “TEAE: Constipation” value (All doses (N = 48), All grades) was 11 (23) n (%), the “TEAE: Cough” value (All doses (N = 48), All grades) was 5 (10) n (%) and the “TEAE: Decreased appetite” value (All doses (N = 48), All grades) was 14 (29) n (%). The “TEAE: Diarrhea” value (All doses (N = 48), All grades) was 6 (13) n (%), the “TEAE: Dizziness” value (All doses (N = 48), All grades) was 5 (10) n (%) and the “TEAE: Dyspnea” value (All doses (N = 48), All grades) was 7 (15) n (%). For the same compound, the “TEAE: Fatigue” value (All doses (N = 48), All grades) was 14 (29) n (%), the “TEAE: Flatulence” value (All doses (N = 48), All grades) was 6 (13) n (%) and the “TEAE: Hyperglycemia” value (All doses (N = 48), All grades) was 7 (15) n (%). For the same compound, the “TEAE: Hyperuricemia” value (All doses (N = 48), All grades) was 5 (10) n (%), the “TEAE: Hypokalemia” value (All doses (N = 48), All grades) was 6 (13) n (%) and the “TEAE: Hypophosphatemia” value (All doses (N = 48), All grades) was 6 (13) n (%). The “TEAE: Increased ALP” value (All doses (N = 48), All grades) was 8 (17) n (%), the “TEAE: Increased ALT” value (All doses (N = 48), All grades) was 6 (13) n (%) and the “TEAE: Increased AST” value (All doses (N = 48), All grades) was 8 (17) n (%). The “TEAE: Nausea” value (All doses (N = 48), All grades) was 19 (40) n (%), the “TEAE: Neutropenia” value (All doses (N = 48), All grades) was 8 (17) n (%) and the “TEAE: Peripheral edema” value (All doses (N = 48), All grades) was 7 (15) n (%). The “TEAE: Pyrexia” value (All doses (N = 48), All grades) was 8 (17) n (%), the “TEAE: Subjects with any AE” value (All doses (N = 48), All grades) was 47 (98) n (%) and the “TEAE: Urinary tract infection” value (All doses (N = 48), All grades) was 12 (25) n (%). The “TEAE: Vomiting” value (All doses (N = 48), All grades) was 11 (23) n (%), the “TEAE: Weight decreased” value (All doses (N = 48), All grades) was 5 (10) n (%) and the “TEAE: Abdominal distension” value (All doses (N = 48), Grade 3–4) was 0 n (%). The “TEAE: Abdominal pain” value (All doses (N = 48), Grade 3–4) was 2 (4) n (%), the “TEAE: Anemia” value (All doses (N = 48), Grade 3–4) was 5 (10) n (%) and the “TEAE: Asthenia” value (All doses (N = 48), Grade 3–4) was 3 (6) n (%). The “TEAE: Back pain” value (All doses (N = 48), Grade 3–4) was 3 (6) n (%), the “TEAE: Constipation” value (All doses (N = 48), Grade 3–4) was 0 n (%) and the “TEAE: Cough” value (All doses (N = 48), Grade 3–4) was 0 n (%). For the same compound, the “TEAE: Decreased appetite” value (All doses (N = 48), Grade 3–4) was 0 n (%), the “TEAE: Dehydration” value (All doses (N = 48), Grade 3–4) was 0 n (%) and the “TEAE: Diarrhea” value (All doses (N = 48), Grade 3–4) was 0 n (%). For the same compound, the “TEAE: Dyspnea” value (All doses (N = 48), Grade 3–4) was 3 (6) n (%), the “TEAE: Fatigue” value (All doses (N = 48), Grade 3–4) was 2 (4) n (%) and the “TEAE: Flatulence” value (All doses (N = 48), Grade 3–4) was 0 n (%). For the same compound, the “TEAE: Hyperbilirubinemia” value (All doses (N = 48), Grade 3–4) was 5 (10) n (%), the “TEAE: Hyperglycemia” value (All doses (N = 48), Grade 3–4) was 4 (8) n (%) and the “TEAE: Hyperuricemia” value (All doses (N = 48), Grade 3–4) was 4 (8) n (%). The “TEAE: Hypokalemia” value (All doses (N = 48), Grade 3–4) was 2 (4) n (%), the “TEAE: Hypophosphatemia” value (All doses (N = 48), Grade 3–4) was 5 (10) n (%) and the “TEAE: Increased ALP” value (All doses (N = 48), Grade 3–4) was 2 (4) n (%). The “TEAE: Increased AST” value (All doses (N = 48), Grade 3–4) was 2 (4) n (%), the “TEAE: Nausea” value (All doses (N = 48), Grade 3–4) was 1 (2) n (%) and the “TEAE: Neutropenia” value (All doses (N = 48), Grade 3–4) was 5 (10) n (%). The “TEAE: Peripheral edema” value (All doses (N = 48), Grade 3–4) was 0 n (%), the “TEAE: Pyrexia” value (All doses (N = 48), Grade 3–4) was 0 n (%) and the “TEAE: Subjects with any AE” value (All doses (N = 48), Grade 3–4) was 29 (60) n (%). The “TEAE: Urinary tract infection” value (All doses (N = 48), Grade 3–4) was 0 n (%), the “TEAE: Weight decreased” value (All doses (N = 48), Grade 3–4) was 0 n (%) and the DLT [1] was “None”. For the same compound, the “Subjects with DLT in cycle 1” value [1] was 0, the DLT [2] was “None” and the “Subjects with DLT in cycle 1” value [2] was 0. For the same compound, the DLT [3] was “None”, the “Subjects with DLT in cycle 1” value [3] was 0 and the DLT [4] was “None”. For the same compound, the “Subjects with DLT in cycle 1” value [4] was 0, the DLT [5] was “Hypokalemia, hypocalcemia, hypophosphatemia” and the “Subjects with DLT in cycle 1” value [5] was 1. For the same compound, the DLT [6] was “None”, the “Subjects with DLT in cycle 1” value [6] was 0 and the DLT [7] was “Deep vein thrombosis”. For the same compound, the “Subjects with DLT in cycle 1” value [7] was 1, the DLT [8] was “None” and the “Subjects with DLT in cycle 1” value [8] was 0. The DLT [9] was “Septic shock”, the “Subjects with DLT in cycle 1” value [9] was 1 and the DLT (Dose level 14 mg/m^2, 5 subjects) was “Orthostatic hypotension (1), elevated uric acid (1)”.
